Measurements as given in patent US10793527B2, “Adenosine monophosphate-activated protein kinase agonist” (NATIONAL YANG-MING UNIVERSITY, priority 2016, dated 2020).

Tests used:
[1] = test system: PLC/PRF/5 (PLC5) cells; test: Cell viability of liver cancer cells (Prestoblue), PLC5; format: cell-based; settings: PLC5 cells, 48 hr
Experimental: Hepatoma cell Huh-7 was obtained from Health Science Research Resources Bank (HSRRB, Osaka. Japan; JCRB0403); Hepatoma cell PLC/PRF/5 (PLC5), Sk-Hep-1 and HCC1806 were obtained from the American Type Culture Collection (ATCC, Manassas, Va.). All cell lines are cultured immediately and frozen, so the frozen cells can be thawed every 3 months to allow experiments are conducted with the same batch of cells.
Analysis is performed using a commercial kit Prestoblue assay produced by Thermo Fisher Scientific. Three liver cancer cell lines PLC/PRF/5, SK-hep1, and Huh-7 are cultured with compound SCT-1015 for 48 hours and 72 hours, respectively. […] The results support that the compound of the present invention can activate AMPK to inhibit the proliferation of liver cancer cells.

[2] = test system: AMPK T172; test: Detection of AMPK phosphorylation by ELISA assay in PLC5 cells; format: cell-based; settings: PLC5 cultured with 10 μM compound for 24 hours, compared to control group
Experimental: In this analysis, the commercial kit AMPK […] Phospho-ELISA Kit (KHO0651) produced by ThermoFisher Science is utilized. The hepatoma cell PLC5 is cultured with 10 μM of the compound for 24 hours, and the analysis is performed according to the manual, and the absorbance was detected at a wavelength of 450 nm.

[3] = Treatment of diet-induced obesity (DIO) mice, body weight; format: in vivo; settings: compared to the control group of mice (FIG. 6)
From the text: The male mice C57BL/6 were purchased from the National Laboratory Animal Center (NLAC, Taipei, Taiwan) and fed high-fat-die for 4 weeks to establish the diet-induced obesity (DIO) mouse model for subsequent experiments

Row | Structure (SMILES) | IC50 [1] | AMPK T172 activity [2] | body weight lost [3]
1 | Cc1ccc(C(=O)Nc2ccc(Cl)c(C(F)(F)F)c2)cc1Nc1nccc(-c2ccc(C#N)cc2)n1 [SCT-1001, N-(4-chloro-3-(trifluoromethyl)phenyl)-(3)-((4-(4-cyanophenyl)pyrimidin-2-yl)amino)-4-methylbenzamide] | > 20 µM |  | 
2 | Cc1ccc(C(=O)Nc2ccc(Cl)c(C(F)(F)F)c2)cc1Nc1nccc(-c2cccc(C#N)c2)n1 [SCT-1002, N-(4-chloro-3-(trifluoromethyl)phenyl)-3-((4-(3-cyanophenyl)pyrimidin-2-yl)amino)-4-methylbenzamide] | > 20 µM | 1.2 fold | 
3 | Cc1ccc(C(=O)Nc2ccc(Cl)c(C(F)(F)F)c2)cc1Nc1nccc(-c2ccc[nH]2)n1 [SCT-1003, 3-((4-(1H-pyrrol-2-yl)pyrimidin-2-yl)amino)-N-(4-chloro-3-(trifluoromethyl)phenyl)-4-methylbenzamide] | > 20 µM | 1.1 fold | 
4 | Cc1ccc(C(=O)Nc2ccc(Cl)c(C(F)(F)F)c2)cc1Nc1nccc(-c2ccccc2)n1 [SCT-1004, N-(4-chloro-3-(trifluoromethyl)phenyl)-4-methyl-3-((4-phenylpyrimidin-2-yl)amino)benzamide] | > 20 µM | 1.1 fold | 
5 | COc1ccc2ccccc2c1-c1ccnc(Nc2cc(C(=O)Nc3ccc(Cl)c(C(F)(F)F)c3)ccc2C)n1 [SCT-1005, N-(4-chloro-3-(trifluoromethyl)phenyl)-3-((4-(2-methoxynaphthalen-1-yl)pyrimidin-2-yl)amino)-4-methylbenzamide] | > 20 µM | 1.0 fold | 
6 | Cc1ccc(C(=O)Nc2ccc(Cl)c(C(F)(F)F)c2)cc1Nc1cc(-c2ccccc2)ncn1 [SCT-1006, N-(4-chloro-3-(trifluoromethyl)phenyl)-4-methyl-3-((6-phenylpyrimidin-4-yl)amino)benzamide] | > 20 µM | 1.3 fold | 
7 | Cc1ccc(C(=O)Nc2ccc(Cl)c(C(F)(F)F)c2)cc1Nc1nccc(-c2cccs2)n1 [SCT-1007, N-(4-chloro-3-(trifluoromethyl)phenyl)-4-methyl-3-((4-(thiophen-2-yl)pyrimidin-2-yl)amino)benzamide] | > 20 µM | 1.1 fold | 
8 | CSc1cccc(-c2ccnc(Nc3cc(C(=O)Nc4ccc(Cl)c(C(F)(F)F)c4)ccc3C)n2)c1 [SCT-1008, N-(4-chloro-3-(trifluoromethyl)phenyl)-4-methyl-3-((4-(3-(methylthio)phenyl)pyrimidin-2-yl)amino)benzamide] | > 20 µM | 1.0 fold | 
9 | Cc1cc(-c2ccnc(Nc3cc(C(=O)Nc4ccc(Cl)c(C(F)(F)F)c4)ccc3C)n2)ccc1F [SCT-1009, N-(4-chloro-3-(trifluoromethyl)phenyl)-3-((4-(4-fluoro-3-methylphenyl)pyrimidin-2-yl)amino)-4-methylbenzamide] | > 20 µM | 1.1 fold | 
10 | Cc1ccc(C(=O)Nc2ccc(Cl)c(C(F)(F)F)c2)cc1Nc1nccc(-c2ccc(OC(F)(F)F)cc2)n1 [SCT-1010, N-(4-chloro-3-(trifluoromethyl)phenyl)-4-methyl-3-((4-(4-(trifluoromethoxy)phenyl)pyrimidin-2-yl)amino)benzamide] | > 20 µM | 1.0 fold | 
11 | Cc1ccc(C(=O)Nc2ccc(Cl)c(C(F)(F)F)c2)cc1Nc1nccc(-c2ccc(C(F)(F)F)cc2)n1 [SCT-1011, N-(4-chloro-3-(trifluoromethyl)phenyl)-4-methyl-3-((4-(4-(trifluoromethyl)phenyl)pyrimidin-2-yl)amino)benzamide] | > 20 µM | 1.1 fold | 
12 | Cc1ccc(C(=O)Nc2ccc(Cl)c(C(F)(F)F)c2)cc1Nc1nccc(-c2cc(Cl)cc(Cl)c2)n1 [SCT-1012, N-(4-chloro-3-(trifluoromethyl)phenyl)-3-((4-(3,5-dichlorophenyl)pyrimidin-2-yl)amino)-4-methylbenzamide] | > 20 µM | 1.0 fold | 
13 | N#Cc1ccc(-c2ccnc(Nc3cccc(NC(=O)Nc4ccc(Cl)c(C(F)(F)F)c4)c3)n2)cc1 [SCT-1013, 1-(4-chloro-3-(trifluoromethyl)phenyl)-3-(3-((4-(4-cyanophenyl)pyrimidin-2-yl)amino)phenyl)urea] | > 20 µM | 1.0 fold | 
14 | N#Cc1cccc(-c2ccnc(Nc3cccc(NC(=O)Nc4ccc(Cl)c(C(F)(F)F)c4)c3)n2)c1 [SCT-1014] | > 20 µM | 1.0 fold | 
15 | O=C(Nc1cccc(Nc2nccc(-c3ccccc3)n2)c1)Nc1ccc(Cl)c(C(F)(F)F)c1 [SCT-1016, 1-(4-chloro-3-(trifluoromethyl)phenyl)-(3-((4-phenylpyrimidin-2-yl)amino)phenyl)urea] | > 20 µM | 1.0 fold | 
16 | O=C(Nc1cccc(Nc2nccc(-c3cccs3)n2)c1)Nc1ccc(Cl)c(C(F)(F)F)c1 [SCT-1017, 1-(4-chloro-3-(trifluoromethyl)phenyl)-3-(3-((4-(thiophen-2-yl)pyrimidin-2-yl)amino)phenyl)urea] | > 20 µM | 1.1 fold | 
17 | CSc1cccc(-c2ccnc(Nc3cccc(NC(=O)Nc4ccc(Cl)c(C(F)(F)F)c4)c3)n2)c1 [SCT-1018, 1-(4-chloro-3-(trifluoromethyl)phenyl)-3-(3-((4-(3-(methylthio)phenyl)pyrimidin-2-yl)amino)phenyl)urea] | > 20 µM | 1.1 fold | 
18 | Cc1cc(-c2ccnc(Nc3cccc(NC(=O)Nc4ccc(Cl)c(C(F)(F)F)c4)c3)n2)ccc1F [SCT-1019, 1-(4-chloro-3-(trifluoromethyl)phenyl)-3-(3-((4-(4-fluoro-3-methylphenyl)pyrimidin-2-yl)amino)phenyl)urea] | > 20 µM | 1.0 fold | 
19 | O=C(Nc1cccc(Nc2nccc(-c3ccc(OC(F)(F)F)cc3)n2)c1)Nc1ccc(Cl)c(C(F)(F)F)c1 [SCT-1020, 1-(4-chloro-3-(trifluoromethyl)phenyl)-3-(3-((4-(4-(trifluoromethoxy)phenyl)pyrimidin-2-yl)amino)phenyl)urea] | > 20 µM | 1.3 fold | 
20 | O=C(Nc1cccc(Nc2nccc(-c3ccc(C(F)(F)F)cc3)n2)c1)Nc1ccc(Cl)c(C(F)(F)F)c1 [SCT-1021, 1-(4-chloro-3-(trifluoromethyl)phenyl)-3-(3-((4-(4-(trifluoromethyl)phenyl)pyrimidin-2-yl)amino)phenyl)urea] | > 20 µM | 1.2 fold | 
21 | O=C(Nc1cccc(Nc2cc(-c3ccccc3)ncn2)c1)Nc1ccc(Cl)c(C(F)(F)F)c1 [SCT-1022] | > 20 µM | 1.4 fold | 
22 | O=C(Nc1cccc(Nc2nccc(-c3cc(Cl)cc(Cl)c3)n2)c1)Nc1ccc(Cl)c(C(F)(F)F)c1 [SCT-1023, 1-(4-chloro-3-(trifluoromethyl)phenyl)-3-(3-((4-(3,5-dichlorophenyl)pyrimidin-2-yl)amino)phenyl)urea] | > 20 µM |  | 
23 | CCc1cccc(NC(=O)Nc2cccc(Nc3nccc(-c4ccc[nH]4)n3)c2)c1 [SCT-1033] | > 20 µM |  | 
24 | Cc1ccc(F)c(NC(=O)Nc2cccc(Nc3nccc(-c4ccc[nH]4)n3)c2)c1 [SCT-1034] | > 20 µM |  | 
25 | COC(=O)c1cccc(NC(=O)Nc2cccc(Nc3nccc(-c4ccc[nH]4)n3)c2)c1 [SCT-1037] | > 20 µM |  | 
26 | O=C(Nc1cccc(Nc2nccc(-c3ccc[nH]3)n2)c1)Nc1cccc(C(=O)O)c1 [SCT-1038, 3-(3-(3-((4-(1H-pyrrol-2-yl)pyrimidin-2-yl)amino)phenyl)ureido)benzoic acid] | > 20 µM |  | 
27 | COC(=O)c1cc(NC(=O)Nc2cccc(Nc3nccc(-c4ccc[nH]4)n3)c2)ccc1C [SCT-1039, Methyl 5-(3-(3-((4-(1H-pyrrol-2-yl)pyrimidin-2-yl)amino)phenyl)ureido)-2-methylbenzoate] | > 20 µM |  | 
28 | COC(=O)c1cc(NC(=O)Nc2cccc(Nc3nccc(-c4ccc[nH]4)n3)c2)ccc1Cl [SCT-1041, Methyl 5-(3-(3-((4-(1H-pyrrol-2-yl)pyrimidin-2-yl)amino)phenyl)ureido)-2-chlorobenzoate] | > 20 µM |  | 
29 | CCCCCCCCCCC[C@@H](C[C@@H]1OC(=O)[C@H]1CCCCCC)OC(=O)[C@H](CC(C)C)NC=O [orlistat, reference compound] |  |  | similar
